Results on two compounds are retold here after ChEMBL document CHEMBL4507281, “Data for DCP probe BI-4394” (2021).

What all share (conditions): Compound concentration 10.0 uM
In assay [1] the target is Dual specificity mitogen-activated protein kinase kinase 1 (Homo sapiens) (UniProt Q02750).
For assay [2], the target named is Fibroblast growth factor receptor 1 (Homo sapiens) (UniProt P11362).
In assay [3] the target is Mitogen-activated protein kinase 14 (Homo sapiens) (UniProt Q16539).
Assay [4] addresses Hepatocyte growth factor receptor (Homo sapiens) (UniProt P08581).
Assay [5] deals with Ribosomal protein S6 kinase beta-1 (Homo sapiens) (UniProt P23443).
Assay [6] deals with Mast/stem cell growth factor receptor Kit (Homo sapiens) (UniProt P10721).
Assay [7] has as its target Protein kinase C beta type (Homo sapiens) (UniProt P05771).
Assay [8] has as its target T1, Serine/threonine-protein kinase Nek1 (Homo sapiens) (UniProt Q96PY6).
T1 sequence (whole entry): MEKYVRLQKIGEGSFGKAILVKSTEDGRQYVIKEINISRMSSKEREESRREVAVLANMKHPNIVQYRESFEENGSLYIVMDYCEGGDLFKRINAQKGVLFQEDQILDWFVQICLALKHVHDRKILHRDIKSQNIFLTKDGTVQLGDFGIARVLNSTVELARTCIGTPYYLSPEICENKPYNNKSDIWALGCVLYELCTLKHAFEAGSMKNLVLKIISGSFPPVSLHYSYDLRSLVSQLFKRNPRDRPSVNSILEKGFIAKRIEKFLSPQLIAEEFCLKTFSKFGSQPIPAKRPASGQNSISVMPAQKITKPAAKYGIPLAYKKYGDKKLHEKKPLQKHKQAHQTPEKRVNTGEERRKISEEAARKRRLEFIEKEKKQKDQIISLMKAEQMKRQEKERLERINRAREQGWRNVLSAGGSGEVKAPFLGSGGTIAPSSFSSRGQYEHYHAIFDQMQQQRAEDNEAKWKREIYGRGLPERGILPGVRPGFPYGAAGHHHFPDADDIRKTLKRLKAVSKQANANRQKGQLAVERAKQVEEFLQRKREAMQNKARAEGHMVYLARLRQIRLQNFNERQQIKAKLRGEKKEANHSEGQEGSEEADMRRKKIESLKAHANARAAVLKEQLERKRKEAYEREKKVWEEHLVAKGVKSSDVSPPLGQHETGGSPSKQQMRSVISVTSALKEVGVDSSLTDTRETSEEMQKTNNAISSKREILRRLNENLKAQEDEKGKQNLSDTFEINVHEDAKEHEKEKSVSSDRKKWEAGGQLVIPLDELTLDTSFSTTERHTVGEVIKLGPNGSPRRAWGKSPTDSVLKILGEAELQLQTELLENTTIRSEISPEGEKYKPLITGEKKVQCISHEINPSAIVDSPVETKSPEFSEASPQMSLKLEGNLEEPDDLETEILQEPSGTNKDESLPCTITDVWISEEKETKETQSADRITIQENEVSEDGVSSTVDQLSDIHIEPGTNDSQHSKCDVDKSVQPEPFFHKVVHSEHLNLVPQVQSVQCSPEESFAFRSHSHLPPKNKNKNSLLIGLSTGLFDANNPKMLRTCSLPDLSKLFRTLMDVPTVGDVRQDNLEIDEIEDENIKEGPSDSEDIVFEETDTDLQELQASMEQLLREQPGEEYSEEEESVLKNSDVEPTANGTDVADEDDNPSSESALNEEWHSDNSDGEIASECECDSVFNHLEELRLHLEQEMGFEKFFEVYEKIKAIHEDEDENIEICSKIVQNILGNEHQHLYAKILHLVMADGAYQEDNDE

The target of assay [9] is Cyclin-dependent kinase 1/cyclin B (Homo sapiens) (UniProt P06493+P14635+Q8WWL7+O95067).
In assay [10] the target is Alpha-1A adrenergic receptor (Homo sapiens) (UniProt P35348).
Assay [11] deals with D(1A) dopamine receptor (Homo sapiens) (UniProt P21728).
Assay [12] concerns the target Casein kinase II subunit alpha (Homo sapiens) (UniProt P68400).
Assay [13] deals with T2, Interleukin-1 receptor-associated kinase 4 (Homo sapiens) (UniProt Q9NWZ3).
T2 sequence (whole entry): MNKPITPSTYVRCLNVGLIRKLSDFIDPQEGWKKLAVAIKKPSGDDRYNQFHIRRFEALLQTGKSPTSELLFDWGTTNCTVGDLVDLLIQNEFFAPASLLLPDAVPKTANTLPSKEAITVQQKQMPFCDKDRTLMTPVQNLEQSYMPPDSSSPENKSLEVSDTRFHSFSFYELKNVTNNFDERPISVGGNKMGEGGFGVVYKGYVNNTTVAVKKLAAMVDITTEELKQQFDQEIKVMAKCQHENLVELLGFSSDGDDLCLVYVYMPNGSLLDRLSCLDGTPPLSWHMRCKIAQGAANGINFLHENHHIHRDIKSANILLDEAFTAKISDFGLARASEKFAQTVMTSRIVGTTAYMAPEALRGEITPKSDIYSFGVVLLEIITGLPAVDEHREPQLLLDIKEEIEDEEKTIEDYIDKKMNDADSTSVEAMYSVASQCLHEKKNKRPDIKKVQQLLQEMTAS

Assay [14] has as its target Insulin-like growth factor 1 receptor (Homo sapiens) (UniProt P08069).
For assay [15], the target named is Muscarinic acetylcholine receptor M2 (Homo sapiens) (UniProt P08172).
The target of assay [16] is D(4) dopamine receptor (Homo sapiens) (UniProt P21917).

Usually inhibition stands for the drop in the measured response relative to a control, in per cent.

Sequence of Mitogen-activated protein kinase 14 (Homo sapiens) (Q16539 whole entry): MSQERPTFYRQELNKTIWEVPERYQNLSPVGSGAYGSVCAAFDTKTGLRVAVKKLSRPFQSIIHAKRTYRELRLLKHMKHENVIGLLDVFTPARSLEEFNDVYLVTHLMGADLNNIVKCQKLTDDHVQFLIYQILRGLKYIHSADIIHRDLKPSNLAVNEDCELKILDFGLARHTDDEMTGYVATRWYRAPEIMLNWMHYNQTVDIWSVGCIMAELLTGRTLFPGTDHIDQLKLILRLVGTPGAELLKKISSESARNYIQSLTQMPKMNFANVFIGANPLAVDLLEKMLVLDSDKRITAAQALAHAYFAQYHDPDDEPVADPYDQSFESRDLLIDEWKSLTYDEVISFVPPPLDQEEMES
Sequence of D(1A) dopamine receptor (Homo sapiens) (P21728 whole entry): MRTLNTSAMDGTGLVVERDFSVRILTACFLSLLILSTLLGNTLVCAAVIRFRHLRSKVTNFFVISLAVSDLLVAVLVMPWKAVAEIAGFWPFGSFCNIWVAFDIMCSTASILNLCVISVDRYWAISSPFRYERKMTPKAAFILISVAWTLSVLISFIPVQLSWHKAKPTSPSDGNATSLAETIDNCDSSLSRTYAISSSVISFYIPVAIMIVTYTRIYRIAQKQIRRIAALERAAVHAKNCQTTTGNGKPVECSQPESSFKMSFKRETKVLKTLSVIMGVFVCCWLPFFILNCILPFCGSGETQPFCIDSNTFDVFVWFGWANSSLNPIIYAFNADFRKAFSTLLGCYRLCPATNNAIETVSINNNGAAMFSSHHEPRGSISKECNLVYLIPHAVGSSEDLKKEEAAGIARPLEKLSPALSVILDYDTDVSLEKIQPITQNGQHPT
Sequence of Insulin-like growth factor 1 receptor (Homo sapiens) (P08069 31-736 limits assumed): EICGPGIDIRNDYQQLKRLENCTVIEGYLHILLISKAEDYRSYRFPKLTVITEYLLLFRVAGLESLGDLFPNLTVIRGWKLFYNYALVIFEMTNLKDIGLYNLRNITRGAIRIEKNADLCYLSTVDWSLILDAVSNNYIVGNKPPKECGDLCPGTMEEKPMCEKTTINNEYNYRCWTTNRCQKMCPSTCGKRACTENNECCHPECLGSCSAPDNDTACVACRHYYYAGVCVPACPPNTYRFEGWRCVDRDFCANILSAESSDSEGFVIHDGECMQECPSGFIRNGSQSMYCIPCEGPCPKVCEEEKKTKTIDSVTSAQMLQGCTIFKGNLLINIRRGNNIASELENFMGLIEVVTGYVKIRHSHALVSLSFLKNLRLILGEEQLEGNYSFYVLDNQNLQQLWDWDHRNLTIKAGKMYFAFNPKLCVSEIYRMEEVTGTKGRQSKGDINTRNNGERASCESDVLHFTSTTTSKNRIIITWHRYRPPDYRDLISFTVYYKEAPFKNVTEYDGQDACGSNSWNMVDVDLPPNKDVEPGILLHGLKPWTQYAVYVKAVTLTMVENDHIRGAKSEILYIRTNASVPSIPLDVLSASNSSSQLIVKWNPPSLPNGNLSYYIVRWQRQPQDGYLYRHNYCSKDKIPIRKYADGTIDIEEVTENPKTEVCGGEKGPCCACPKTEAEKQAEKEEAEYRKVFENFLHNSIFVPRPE
Sequence of Insulin-like growth factor 1 receptor (Homo sapiens) (P08069 741-1367 limits assumed): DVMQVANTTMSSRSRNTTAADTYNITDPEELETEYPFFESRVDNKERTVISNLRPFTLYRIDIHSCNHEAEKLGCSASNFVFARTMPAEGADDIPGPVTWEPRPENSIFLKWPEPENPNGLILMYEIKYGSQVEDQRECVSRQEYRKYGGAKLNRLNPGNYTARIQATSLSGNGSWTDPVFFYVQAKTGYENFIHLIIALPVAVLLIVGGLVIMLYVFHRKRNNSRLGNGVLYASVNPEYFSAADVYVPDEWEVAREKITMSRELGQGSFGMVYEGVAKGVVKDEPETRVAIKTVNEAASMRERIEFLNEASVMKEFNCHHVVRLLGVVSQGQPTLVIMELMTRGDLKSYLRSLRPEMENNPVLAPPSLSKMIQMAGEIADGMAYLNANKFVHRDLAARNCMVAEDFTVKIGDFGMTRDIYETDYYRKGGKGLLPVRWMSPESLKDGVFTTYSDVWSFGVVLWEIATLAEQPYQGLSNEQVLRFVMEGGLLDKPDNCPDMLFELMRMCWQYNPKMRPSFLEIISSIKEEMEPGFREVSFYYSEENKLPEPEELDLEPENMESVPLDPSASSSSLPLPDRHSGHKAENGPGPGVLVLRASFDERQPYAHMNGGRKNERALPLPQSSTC
Sequence of D(4) dopamine receptor (Homo sapiens) (P21917 whole entry): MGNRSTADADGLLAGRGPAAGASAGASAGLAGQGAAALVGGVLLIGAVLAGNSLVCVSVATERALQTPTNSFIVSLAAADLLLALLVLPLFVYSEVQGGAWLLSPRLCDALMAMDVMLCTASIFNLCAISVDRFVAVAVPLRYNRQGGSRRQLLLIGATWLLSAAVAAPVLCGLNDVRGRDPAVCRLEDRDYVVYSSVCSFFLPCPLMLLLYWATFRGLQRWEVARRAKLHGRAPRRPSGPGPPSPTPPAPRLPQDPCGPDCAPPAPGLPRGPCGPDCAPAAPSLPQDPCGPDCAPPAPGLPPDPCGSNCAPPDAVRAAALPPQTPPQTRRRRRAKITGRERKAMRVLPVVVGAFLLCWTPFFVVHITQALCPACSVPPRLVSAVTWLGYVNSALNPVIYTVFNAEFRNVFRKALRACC
Sequence of Casein kinase II subunit alpha (Homo sapiens) (P68400 whole entry, looked up): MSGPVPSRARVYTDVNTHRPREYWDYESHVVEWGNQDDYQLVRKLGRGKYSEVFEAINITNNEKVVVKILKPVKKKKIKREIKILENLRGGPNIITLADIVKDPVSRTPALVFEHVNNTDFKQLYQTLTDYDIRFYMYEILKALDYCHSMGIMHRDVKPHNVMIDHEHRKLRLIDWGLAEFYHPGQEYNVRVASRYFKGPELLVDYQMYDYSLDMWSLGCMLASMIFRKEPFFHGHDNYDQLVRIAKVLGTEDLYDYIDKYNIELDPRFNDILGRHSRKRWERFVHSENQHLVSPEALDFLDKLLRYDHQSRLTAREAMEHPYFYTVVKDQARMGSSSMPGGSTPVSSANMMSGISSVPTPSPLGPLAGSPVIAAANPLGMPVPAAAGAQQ
Sequence of Fibroblast growth factor receptor 1 (Homo sapiens) (P11362 22-822 limits assumed): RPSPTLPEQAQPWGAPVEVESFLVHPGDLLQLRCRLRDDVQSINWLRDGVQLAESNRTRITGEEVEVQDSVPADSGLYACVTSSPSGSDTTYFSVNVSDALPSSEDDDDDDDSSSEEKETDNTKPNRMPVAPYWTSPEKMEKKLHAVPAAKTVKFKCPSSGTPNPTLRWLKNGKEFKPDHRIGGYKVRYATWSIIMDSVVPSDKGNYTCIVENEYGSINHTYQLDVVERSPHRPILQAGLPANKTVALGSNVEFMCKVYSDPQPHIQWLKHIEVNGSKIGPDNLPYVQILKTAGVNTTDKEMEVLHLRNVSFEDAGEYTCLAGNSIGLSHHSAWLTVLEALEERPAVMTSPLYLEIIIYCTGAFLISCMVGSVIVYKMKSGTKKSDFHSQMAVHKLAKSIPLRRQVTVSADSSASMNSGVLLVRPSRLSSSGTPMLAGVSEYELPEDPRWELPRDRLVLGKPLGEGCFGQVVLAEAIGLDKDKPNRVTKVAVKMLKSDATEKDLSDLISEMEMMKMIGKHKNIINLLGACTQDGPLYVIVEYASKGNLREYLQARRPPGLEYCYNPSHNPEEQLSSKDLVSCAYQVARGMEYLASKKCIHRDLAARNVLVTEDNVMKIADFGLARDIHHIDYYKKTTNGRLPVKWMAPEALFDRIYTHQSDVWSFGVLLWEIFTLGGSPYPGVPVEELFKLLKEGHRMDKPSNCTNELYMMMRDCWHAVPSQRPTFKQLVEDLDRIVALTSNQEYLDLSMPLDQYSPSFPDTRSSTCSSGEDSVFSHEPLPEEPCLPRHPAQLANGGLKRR
Sequence of Muscarinic acetylcholine receptor M2 (Homo sapiens) (P08172 whole entry): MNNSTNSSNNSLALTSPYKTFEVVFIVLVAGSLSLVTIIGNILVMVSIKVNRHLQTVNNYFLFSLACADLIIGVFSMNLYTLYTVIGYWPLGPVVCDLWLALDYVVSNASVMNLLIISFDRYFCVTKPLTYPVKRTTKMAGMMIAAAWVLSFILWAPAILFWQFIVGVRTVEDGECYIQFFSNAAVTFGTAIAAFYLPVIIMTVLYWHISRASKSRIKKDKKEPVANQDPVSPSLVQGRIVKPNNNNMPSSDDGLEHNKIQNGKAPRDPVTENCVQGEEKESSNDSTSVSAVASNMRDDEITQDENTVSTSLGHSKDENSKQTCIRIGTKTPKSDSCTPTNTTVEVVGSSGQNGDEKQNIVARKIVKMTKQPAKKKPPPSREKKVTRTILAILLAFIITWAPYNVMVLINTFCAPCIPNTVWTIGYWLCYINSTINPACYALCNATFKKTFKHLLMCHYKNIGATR
Sequence of Ribosomal protein S6 kinase beta-1 (Homo sapiens) (P23443 whole entry, looked up): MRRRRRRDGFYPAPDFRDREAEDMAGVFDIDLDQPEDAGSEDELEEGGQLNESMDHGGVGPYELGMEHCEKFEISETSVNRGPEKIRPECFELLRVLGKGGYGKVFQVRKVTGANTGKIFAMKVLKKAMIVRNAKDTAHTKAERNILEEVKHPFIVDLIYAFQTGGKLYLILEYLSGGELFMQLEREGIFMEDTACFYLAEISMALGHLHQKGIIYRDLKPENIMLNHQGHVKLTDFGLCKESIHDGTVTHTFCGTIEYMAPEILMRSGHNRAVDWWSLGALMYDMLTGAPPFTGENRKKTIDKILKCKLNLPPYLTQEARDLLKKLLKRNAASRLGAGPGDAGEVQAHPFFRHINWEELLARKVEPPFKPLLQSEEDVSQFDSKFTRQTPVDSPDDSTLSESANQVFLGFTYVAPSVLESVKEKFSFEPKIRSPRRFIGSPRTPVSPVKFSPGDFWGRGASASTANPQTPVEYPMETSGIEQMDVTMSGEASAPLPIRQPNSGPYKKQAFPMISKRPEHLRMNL

For the compound `CCOC(=O)c1cc2cc(-c3cc(C(=O)NCc4ccc(C(=O)O)cc4)nn3C)ccc2[nH]1` [BI 4394], the residual activity in [1] is 78%; in assay [2], 94%; in assay [3], 6%; in assay [4], 43%; in assay [5], 89%; in assay [6], 77%. Also, the residual activity in assay [7] was 97%; in [8] it was 49%; in assay [9] it was 88%; in [12] it was 89%; in assay [13], 121%; in assay [14], 88%. The values for the inhibition in assay [10] and in assay [11] were -6.15% and -5.02%, respectively.
As for `Cn1nc(C(=O)NCc2ccc(C(=O)O)cc2)cc1-c1ccc2[nH]ccc2c1` [BI 4395], the inhibition in [15] was -8.35%; in assay [16], -8.91%.
